Results published in patent publication US10688093B2, “Methods, compositions, and uses of novel Fyn kinase inhibitors” (priority 2015, dated 2020).

Target: full-length recombinant human FYN A (Homo sapiens (Human), UniProt P06241)
Experiment: ADP-Glo Kinase Assay of FYN kinase inhibition
Assay type: biochemical
Details: primary screen, initial compounds
Method in brief: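 ADP-Glo read-out of peptide phosphorylation after 90 min RT with 12.5 pmol ATP and 100 pg 12-mer substrate. Enzyme was N-GST full-length human FYN A from insect cells, 3 pg, pre-incubated 30 min with compound, 10 points from 10 μM top, 3-fold steps; IC50 from curve.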

Chain of full-length recombinant human FYN A (P06241 whole entry): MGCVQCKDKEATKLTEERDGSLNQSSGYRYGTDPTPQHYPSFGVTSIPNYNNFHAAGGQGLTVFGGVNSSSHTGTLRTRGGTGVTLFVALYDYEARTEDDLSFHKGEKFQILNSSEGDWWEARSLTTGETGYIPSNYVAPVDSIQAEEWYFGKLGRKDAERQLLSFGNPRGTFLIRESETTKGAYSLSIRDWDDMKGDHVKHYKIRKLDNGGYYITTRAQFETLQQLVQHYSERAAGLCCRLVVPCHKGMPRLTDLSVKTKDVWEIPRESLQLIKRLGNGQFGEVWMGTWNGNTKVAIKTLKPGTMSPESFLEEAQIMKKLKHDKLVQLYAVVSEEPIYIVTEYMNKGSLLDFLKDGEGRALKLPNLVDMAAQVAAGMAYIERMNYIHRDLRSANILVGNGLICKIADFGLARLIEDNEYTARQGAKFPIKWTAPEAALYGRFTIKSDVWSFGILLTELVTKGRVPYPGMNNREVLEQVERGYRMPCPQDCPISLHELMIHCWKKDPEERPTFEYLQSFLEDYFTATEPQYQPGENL

Structure (SMILES) | IC50
OC1CCC(Nc2nn3c(-c4cccc(F)c4)cnc3s2)CC1 (centres unmarked) [Compound 571, 4-[[5-(3-fluorophenyl)imidazo[2,1-b] [1,3,4]thiadiazol-2-yl]amino] cyclohexanol] | 2.92 µM
COc1ccc(-c2cnc3sc(NC4CCC(O)CC4)nn23)cc1OC (centres unmarked) [Compound 572, 4-[[5-(3,4-dimethoxyphenyl)imidazo[2,1-b] [1,3,4]thiadiazol-2-yl]amino] cyclohexanol] | 0.483 µM
c1cncc(-c2cnc3sc(NCc4cccs4)nn23)c1 [Compound 573, 5-(3-pyridyl)-N-(2-thienylmethyl) imidazo[2,1-b] [1,3,4]thiadiazol-2-amine] | 1.94 µM
COc1ccc(-c2cnc3sc(NCc4ccncc4)nn23)cc1OC [Compound 574, 5-(3,4-dimethoxy-phenyl)-N-(4-pyridylmethyl) imidazo[2,1-b] [1,3,4]thiadiazol-2-amine] | 2.13 µM
CC(=O)Nc1cc(-c2ccc(N)cc2)cn2c(-c3ccc(F)cc3)cnc12 [Compound 575, N-[6-(4-aminophenyl)-3-(4-fluorophenyl)imidazo[1,2-a]pyridin-8-yl]acetamide] | 5.25 µM
Cn1cc(-c2cc(NC=O)c3ncc(-c4ccc(F)cc4)n3c2)cn1 [Compound 576, N-[3-(4-fluorophenyl)-6-(1-methylpyrazol-4-yl)imidazo[1,2-a]pyridin-8-yl]formamide] | 8.09 µM
COc1cccc(-n2c(N)c(C(N)=O)c3nc4ccccc4nc32)c1 [Compound 577, 2-amino-1-(3-methoxyphenyl) pyrrolo[3,2-b]quinoxaline-3-carboxamide] | 1.18 µM
Fc1cccc(-c2cnc3sc(NC4CCCCC4)nn23)c1 [Compound 578, N-cyclohexyl-5-(3-fluorophenyl) imidazo[2,1-d] [1,3,4]thiadiazol-2-amine] | 4.08 µM
c1cncc(-c2cnc3sc(NCc4ccco4)nn23)c1 [Compound 579, N-(2-furylmethyl)-5-(3-pyridyl)imidazo [2,1-a][1,3,4] thiadiazol-2-amine] | 3.16 µM
Cn1cc(-c2cnc3sc(NCc4ccco4)nn23)cn1 [Compound 580, N-(2-furylmethyl)-5-(1-methylpyrazol-4-yl)imidazo [2,1-b][1,3,4] thiadiazol-2-amine] | 5.64 µM
COc1cncc(-c2cnc3sc(NCc4cccs4)nn23)c1 [Compound 581, 5-(5-methoxy-3-pyridyl)-N-(2-thienylmethyl) imidazo[2,1-b] [1,3,4]thiadiazol-2-amine] | 0.729 µM
COc1ccc(-c2cnc3sc(NCC(C)C)nn23)cc1OC [Compound 582, 5-(3,4-dimethoxy-phenyl)-N-isobutyl-imidazo [2,1-b][1,3,4] thiadiazol-2-amine] | 2.75 µM
c1ccc(CNc2nn3c(-c4cccnc4)cnc3s2)cc1 [Compound 584, N-benzyl-5-(3-pyridyl)imidazo [2,1-b][1,3,4] thiadiazol-2-amine] | 0.839 µM
COc1cncc(-c2cnc3sc(NCc4ccccc4)nn23)c1 [Compound 585, N-benzyl-5-(5-methoxy-3-pyridyl)imidazo [2,1-b][1,3,4] thiadiazol-2-amine] | 0.343 µM
COc1cncc(-c2cnc3sc(NCC4CCOCC4)nn23)c1 [Compound 587, 5-(5-methoxy-3-pyridyl)-N-(tetrahydro-pyran-4-ylmethyl)imidazo [2,1-d][1,3,4] thiadiazol-2-amine] | 0.384 µM

Second part, the compound after the results:

IC50 | Structure (SMILES)
15.1 µM | CC(=O)c1cccc(-c2cnc3sc(NCC(C)C)nn23)c1 [Compound 583, 1-[3-[2-(isobutyl-amino)imidazo [2,1-a][1,3,4]thiadiazol-5-yl]phenyl] ethanone]
4.85 µM | c1cncc(-c2cnc3sc(NCC4CCOCC4)nn23)c1 [Compound 586, 5-(3-pyridyl)-N-(tetrahydropyran-4-ylmethyl) imidazo[2,1-b] [1,3,4]thiadiazol-2-amine]
9.65 µM | COc1ccc(CNc2nn3c(-c4cncc(OC)c4)cnc3s2)cc1 [Compound 588, N-[(4-methoxyphenyl)methyl]-5-(5-methoxy-3-pyridyl)imidazo [2,1-3][1,3,4] thiadiazol-2-amine]
1.08 µM | Cc1ccccc1CNc1nn2c(-c3cccnc3)cnc2s1 [Compound 589, N-(o-tolylmethyl)-5-(3-pyridyl) imidazo[2,1-b] [1,3,4]thiadiazol-2-amine]
30 µM | CN1CCN(c2ccc(Nc3cc4c(cn3)cc(-c3cccc(C(F)(F)F)c3)n4C)cc2)CC1 [Compound 590, 1-methyl-N-[4-(4-methylpiperazin-1-yl)phenyl]-2-[3-(trifluoromethyl)phenyl]pyrrolo [3,2-c]pyridin-6-amine]
16.8 µM | Cn1c(-c2cccc(C(F)(F)F)c2)cc2cnc(Nc3ccncn3)cc21 [Compound 591, 1-methyl-N-pyrimidin-4-yl-2-[3-(trifluoro-methyl)phenyl] pyrrolo[3,2-c]pyridin-6-amine]
12.9 µM | CN1CCN(c2ccc(Nc3cc4c(cn3)cc(-c3cccc(F)c3)n4C)cc2)CC1 [Compound 592, 2-(3-fluorophenyl)-1-methyl-N-[4-(4-methylpiperazin-1-yl)phenyl] pyrrolo[3,2-c]pyridin-6-amine]
9.09 µM | Cn1c(-c2cccc(F)c2)cc2cnc(Nc3ccncn3)cc21 [Compound 593, 2-(3-fluorophenyl)-1-methyl-N-pyrimidin-4-yl-pyrrolo[3,2-c]pyridin-6-amine]
4.07 µM | NC1=C(c2nc3ccccc3[nH]2)C(=O)CN1c1ccc2c(c1)OCO2 [Compound 594, 5-amino-4-(1H-benzimidazol-2-yl)-1-(1,3-benzodioxol-5-yl)-2H-pyrrol-3-one]
7.04 µM | CN1CCN(c2ccc(Nc3nccc4[nH]c(-c5ccc(C(=O)N(C)C)cc5)cc34)cc2)CC1 [Compound 595, N,N-dimethyl-4-[4-[4-(4-methylpiperazin-1-yl)anilino]-1H-pyrrolo[3,2-c]pyridin-2-yl]benzamide]
30 µM | COc1cc(OC)cc(-c2cc3c(N4CCOCC4)nccc3[nH]2)c1 [Compound 596, 4-[2-(3,5-dimethoxy-phenyl)-1H-pyrrolo[3,2-c]pyridin-4-yl]morpholine]
30 µM | COc1ccccc1-c1cc2c(Nc3ccc(NC(C)=O)cc3)nccc2[nH]1 [Compound 597, N-[4-[[2-(2-methoxyphenyl)-1H-pyrrolo[3,2-c]pyridin-4-yl]amino]phenyl] acetamide]
30 µM | COc1ccccc1-c1cc2c(Nc3cccc(C(F)(F)F)c3)nccc2n1C [Compound 598, 2-(2-methoxyphenyl)-1-methyl-N-[3-(trifluoromethyl)phenyl]pyrrolo [3,2-c]pyridin-4-amine]
18.4 µM | COc1ccc(OC)c(-n2c(-c3ccc(F)cc3)cn3c4c(=O)[nH]c(=O)n(C)c4nc23)c1 [Compound 599, 8-(2,5-dimethoxy-phenyl)-7-(4-fluorophenyl)-1-methyl-3H-imidazo [1,2-g]purine-2,4-dione]
2.26 µM | COC(=O)c1c(N)n(-c2cccc(O)c2)c2nc3ccccc3nc12 [Compound 600, methyl 2-amino-1-(3-hydroxy-phenyl)pyrrolo [3,2-b]quinoxaline-3-carboxylate]

Test system: not given
Experiment: not given
Details: Fyn knockout strains; cited from earlier work

Structure (SMILES) | lipid utilization and energy utilization
CN(C)S(=O)(=O)c1ccc2c(c1)/C(=C/c1cc3c([nH]1)CCCC3)C(=O)N2 [SU6656] | no increase in either parameter

Same assay, conditions: treated mice relative to untreated control mice; cited from earlier work

Structure (SMILES) | fat mass
CN(C)S(=O)(=O)c1ccc2c(c1)/C(=C/c1cc3c([nH]1)CCCC3)C(=O)N2 [SU6656] | significantly reduced
